This passage reports IC50 results from patent US12581252B2, “Substituted pyrrolo[3,4-b]pyridines as PI3K-α inhibitors” (Relay Therapeutics, Inc., priority 2020, dated 2026).

Test system in one experiment: not listed separately
The experiment in a line: cells. To be noted: Homo sapiens, MCF-10A, read-out: MCF10A IC50.
For `O=C(Nc1cc(CC2(O)CNC2)cc2c1C(c1cc(F)ccc1Cl)NC2=O)c1cc(F)cc(C(F)(F)F)c1` (stereo not shown) [Compound I-926], the IC50 lay in the range of 10000 to 36000 nM.
Same read-out and setting: the same measure for `Cc1cc(-c2cc(NC(=O)c3cc(F)cc(C(F)(F)F)c3)c3c(c2)C(=O)NC3c2cc(F)ccc2Cl)cc2cnn(C)c12` (stereo not shown) [Compound I-927]: 5000 to 10000 nM; for `N#Cc1ccc(-c2cc(NC(=O)c3cc(F)cc(C(F)(F)F)c3)c3c(c2)C(=O)NC3c2cc(F)ccc2Cl)cn1` (stereo not shown) [Compound I-928]: under 1000 nM.
Same read-out and setting: to `O=C(Nc1cc(-c2ccc(N3CCOCC3)nc2)cc2c1C(c1cc(F)ccc1Cl)NC2=O)c1cc(F)cc(C(F)(F)F)c1` (stereo not shown) [Compound I-929] belongs under 1000 nM; to `O=C(Nc1cc(-c2cnc(N3CCOCC3)nc2)cc2c1C(c1cc(F)ccc1Cl)NC2=O)c1cc(F)cc(C(F)(F)F)c1` (stereo not shown) [Compound I-930], 1000 to 5000 nM; to `O=C(Nc1cc(-c2cccc3ncccc23)cc2c1C(c1cc(F)ccc1Cl)NC2=O)c1cc(F)cc(C(F)(F)F)c1` (stereo not shown) [Compound I-931], under 1000 nM.
The same measure, in the same setting: to `O=C(Nc1cc(-c2ccc3c(c2)OCCO3)cc2c1C(c1cc(F)ccc1Cl)NC2=O)c1cc(F)cc(C(F)(F)F)c1` (stereo not shown) [Compound I-932] belongs 1000 to 5000 nM.
For `Cc1cc2cnn(C)c2cc1-c1cc(NC(=O)c2cc(F)cc(C(F)(F)F)c2)c2c(c1)C(=O)NC2c1cc(F)ccc1Cl` (stereo not shown) [Compound I-933], the IC50 was in the range of 5000 to 10000 nM.
The same measure, in the same setting: the same measure for `O=C(Nc1cc(-c2ccnc3ccccc23)cc2c1C(c1cc(F)ccc1Cl)NC2=O)c1cc(F)cc(C(F)(F)F)c1` (stereo not shown) [Compound I-934]: under 1000 nM; for `O=C(Nc1cc(-c2cnoc2)cc2c1C(c1cc(F)ccc1Cl)NC2=O)c1cc(F)cc(C(F)(F)F)c1` (stereo not shown) [Compound I-935]: under 1000 nM.
Still for that read-out and setting: to `O=C(Nc1cc(-c2n[nH]c3cccnc23)cc2c1C(c1cc(F)ccc1Cl)NC2=O)c1cc(F)cc(C(F)(F)F)c1` (stereo not shown) [Compound I-936] belongs under 1000 nM.
Still for that read-out and setting: the same measure for `O=C(Nc1cc(-c2n[nH]c3ccccc23)cc2c1C(c1cc(F)ccc1Cl)NC2=O)c1cc(F)cc(C(F)(F)F)c1` (stereo not shown) [Compound I-937]: 1000 to 5000 nM; for `O=C(Nc1cc(-c2n[nH]c3ncccc23)cc2c1C(c1cc(F)ccc1Cl)NC2=O)c1cc(F)cc(C(F)(F)F)c1` (stereo not shown) [Compound I-939]: under 1000 nM.
Take `O=C(Nc1cc(-c2cnc3cnccn23)cc2c1C(c1cc(F)ccc1Cl)NC2=O)c1cc(F)cc(C(F)(F)F)c1` (stereo not shown) [Compound I-940]: the IC50 is under 1000 nM.
Consider `CC(C)(O)c1ncc(-c2cc(NC(=O)c3cc(F)cc(C(F)(F)F)c3)c3c(c2)C(=O)NC3c2cc(F)ccc2Cl)cn1` (stereo not shown) [Compound I-941], for which the IC50 is under 1000 nM.
On to `O=C(Nc1cc(-c2cnn(C3CC3)c2)cc2c1C(c1cc(F)ccc1Cl)NC2=O)c1cc(F)cc(C(F)(F)F)c1` (stereo not shown) [Compound I-942], for which the half-maximal inhibitory concentration (IC50) was under 1000 nM.
Consider `CC(C)(C)OC(=O)N1CC(n2cc(-c3cc(NC(=O)c4cc(F)cc(C(F)(F)F)c4)c4c(c3)C(=O)NC4c3cc(F)ccc3Cl)cn2)C1` (stereo not shown) [Compound I-944], for which the 50% inhibitory concentration (IC50) was in the range of 5000 to 10000 nM.
As to `O=C(Nc1cc(-c2cn3ccnc3cn2)cc2c1C(c1cc(F)ccc1Cl)NC2=O)c1cc(F)cc(C(F)(F)F)c1` (stereo not shown) [Compound I-946], the IC50 was under 1000 nM.
The same measure, in the same setting: to `Cn1ccc(-c2cc(NC(=O)c3cc(F)cc(C(F)(F)F)c3)c3c(c2)C(=O)NC3c2cc(F)ccc2Cl)n1` (stereo not shown) [Compound I-947] belongs under 1000 nM.
On the same count and under the same terms, to `O=C(Nc1cc(-c2cnc3ccccc3n2)cc2c1C(c1cc(F)ccc1Cl)NC2=O)c1cc(F)cc(C(F)(F)F)c1` (stereo not shown) [Compound I-948] belongs under 1000 nM; to `O=C(Nc1cc(-c2cc3cnccc3[nH]2)cc2c1C(c1cc(F)ccc1Cl)NC2=O)c1cc(F)cc(C(F)(F)F)c1` (stereo not shown) [Compound I-949], 1000 to 5000 nM.
Take `O=C1NC(c2cc(F)ccc2Cl)c2c(Nc3nccc4c(Cl)cc(F)cc34)cc(Br)cc21` (stereo not shown) [Compound I-959]: the IC50 is under 1000 nM.
In the case of `O=C(Nc1cc(-n2cccn2)cc2c1C(c1cc(F)ccc1Cl)NC2=O)c1cc(F)cc(C(F)(F)F)c1` (stereo not shown) [Compound I-960], the IC50 was under 1000 nM.

The target in another experiment is H1047R PIK3CA enzyme (Homo sapiens, UniProt P42336, H1047R). The experiment in a line: ADP-Glo Biochemical PIK3CA Kinase Assay.
H1047R PIK3CA enzyme, sequence (P42336 whole entry H1047R): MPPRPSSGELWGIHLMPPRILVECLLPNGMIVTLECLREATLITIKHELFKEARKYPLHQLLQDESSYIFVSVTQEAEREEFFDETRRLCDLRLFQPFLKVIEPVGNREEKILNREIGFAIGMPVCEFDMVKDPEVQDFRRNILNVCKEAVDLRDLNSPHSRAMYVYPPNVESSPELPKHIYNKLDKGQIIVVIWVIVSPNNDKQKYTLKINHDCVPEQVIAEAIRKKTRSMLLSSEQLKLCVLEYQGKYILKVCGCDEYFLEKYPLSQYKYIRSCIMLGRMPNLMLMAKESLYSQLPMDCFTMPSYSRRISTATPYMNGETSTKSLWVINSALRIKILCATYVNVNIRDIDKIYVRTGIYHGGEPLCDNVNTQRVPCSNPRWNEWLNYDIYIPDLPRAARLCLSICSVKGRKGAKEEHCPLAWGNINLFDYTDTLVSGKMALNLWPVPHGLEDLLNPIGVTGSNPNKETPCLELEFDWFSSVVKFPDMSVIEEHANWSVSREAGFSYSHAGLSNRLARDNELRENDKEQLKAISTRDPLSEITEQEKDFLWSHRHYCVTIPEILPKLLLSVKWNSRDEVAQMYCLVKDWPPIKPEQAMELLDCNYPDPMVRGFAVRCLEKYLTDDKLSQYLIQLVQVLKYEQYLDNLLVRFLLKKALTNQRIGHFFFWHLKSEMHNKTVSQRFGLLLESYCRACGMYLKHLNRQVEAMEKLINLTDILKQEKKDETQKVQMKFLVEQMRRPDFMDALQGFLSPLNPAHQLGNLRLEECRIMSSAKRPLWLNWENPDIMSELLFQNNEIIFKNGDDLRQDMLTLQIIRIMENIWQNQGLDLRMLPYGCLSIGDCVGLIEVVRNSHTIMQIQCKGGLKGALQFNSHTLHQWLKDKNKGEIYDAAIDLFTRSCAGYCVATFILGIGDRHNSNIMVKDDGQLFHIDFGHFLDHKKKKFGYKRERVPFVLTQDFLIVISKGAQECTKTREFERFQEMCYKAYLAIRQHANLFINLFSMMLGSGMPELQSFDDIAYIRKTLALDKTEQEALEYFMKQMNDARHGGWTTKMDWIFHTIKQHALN
H1047R PIK3CA enzyme, sequence (P27986 whole entry partner): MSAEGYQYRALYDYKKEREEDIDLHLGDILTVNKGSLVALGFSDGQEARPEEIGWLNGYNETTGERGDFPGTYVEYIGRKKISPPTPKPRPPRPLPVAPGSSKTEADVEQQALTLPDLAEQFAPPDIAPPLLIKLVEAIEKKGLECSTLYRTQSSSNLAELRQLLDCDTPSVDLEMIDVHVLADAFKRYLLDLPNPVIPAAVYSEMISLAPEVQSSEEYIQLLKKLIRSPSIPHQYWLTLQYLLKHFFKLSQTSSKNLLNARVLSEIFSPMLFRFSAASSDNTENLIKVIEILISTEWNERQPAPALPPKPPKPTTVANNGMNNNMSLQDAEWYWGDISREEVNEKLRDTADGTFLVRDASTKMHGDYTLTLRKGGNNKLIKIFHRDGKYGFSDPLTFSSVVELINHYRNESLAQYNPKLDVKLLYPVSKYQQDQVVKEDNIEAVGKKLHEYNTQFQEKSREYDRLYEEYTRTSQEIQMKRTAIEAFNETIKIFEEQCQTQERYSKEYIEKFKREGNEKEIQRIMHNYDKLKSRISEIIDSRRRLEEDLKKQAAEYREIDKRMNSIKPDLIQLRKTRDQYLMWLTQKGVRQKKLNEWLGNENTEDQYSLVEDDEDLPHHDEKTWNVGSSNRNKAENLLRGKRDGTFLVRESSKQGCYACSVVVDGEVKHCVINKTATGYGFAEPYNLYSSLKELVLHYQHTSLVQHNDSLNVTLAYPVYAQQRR
Details: not given
(ADP-Glo first removes unused ATP, then detects ADP through luciferase.)
The compound `O=C(Nc1cc(CC2(O)CNC2)cc2c1C(c1cc(F)ccc1Cl)NC2=O)c1cc(F)cc(C(F)(F)F)c1` (stereo not shown) [Compound I-926] displayed an IC50 of at most 100 nM.
Regarding `Cc1cc(-c2cc(NC(=O)c3cc(F)cc(C(F)(F)F)c3)c3c(c2)C(=O)NC3c2cc(F)ccc2Cl)cc2cnn(C)c12` (stereo not shown) [Compound I-927], the IC50 lay in the range of 100 to 500 nM.
Still for that read-out and setting: the same measure for `N#Cc1ccc(-c2cc(NC(=O)c3cc(F)cc(C(F)(F)F)c3)c3c(c2)C(=O)NC3c2cc(F)ccc2Cl)cn1` (stereo not shown) [Compound I-928]: at most 100 nM; for `O=C(Nc1cc(-c2ccc(N3CCOCC3)nc2)cc2c1C(c1cc(F)ccc1Cl)NC2=O)c1cc(F)cc(C(F)(F)F)c1` (stereo not shown) [Compound I-929]: at most 100 nM.
`O=C(Nc1cc(-c2cnc(N3CCOCC3)nc2)cc2c1C(c1cc(F)ccc1Cl)NC2=O)c1cc(F)cc(C(F)(F)F)c1` (stereo not shown) [Compound I-930] returned an IC50 of at most 100 nM.
`O=C(Nc1cc(-c2cccc3ncccc23)cc2c1C(c1cc(F)ccc1Cl)NC2=O)c1cc(F)cc(C(F)(F)F)c1` (stereo not shown) [Compound I-931] showed a half-maximal inhibitory concentration (IC50) of at most 100 nM.
`O=C(Nc1cc(-c2ccc3c(c2)OCCO3)cc2c1C(c1cc(F)ccc1Cl)NC2=O)c1cc(F)cc(C(F)(F)F)c1` (stereo not shown) [Compound I-932] displayed an IC50 of 100 to 500 nM.
The same measure, in the same setting: to `Cc1cc2cnn(C)c2cc1-c1cc(NC(=O)c2cc(F)cc(C(F)(F)F)c2)c2c(c1)C(=O)NC2c1cc(F)ccc1Cl` (stereo not shown) [Compound I-933] belongs 100 to 500 nM.
The same measure, in the same setting: the same measure for `O=C(Nc1cc(-c2ccnc3ccccc23)cc2c1C(c1cc(F)ccc1Cl)NC2=O)c1cc(F)cc(C(F)(F)F)c1` (stereo not shown) [Compound I-934]: at most 100 nM; for `O=C(Nc1cc(-c2cnoc2)cc2c1C(c1cc(F)ccc1Cl)NC2=O)c1cc(F)cc(C(F)(F)F)c1` (stereo not shown) [Compound I-935]: at most 100 nM; for `O=C(Nc1cc(-c2n[nH]c3cccnc23)cc2c1C(c1cc(F)ccc1Cl)NC2=O)c1cc(F)cc(C(F)(F)F)c1` (stereo not shown) [Compound I-936]: at most 100 nM.
`O=C(Nc1cc(-c2n[nH]c3ccccc23)cc2c1C(c1cc(F)ccc1Cl)NC2=O)c1cc(F)cc(C(F)(F)F)c1` (stereo not shown) [Compound I-937]: the IC50 was 100 to 500 nM.
Still for that read-out and setting: the same measure for `O=C(Nc1cc(-c2n[nH]c3ncccc23)cc2c1C(c1cc(F)ccc1Cl)NC2=O)c1cc(F)cc(C(F)(F)F)c1` (stereo not shown) [Compound I-939]: at most 100 nM.
`O=C(Nc1cc(-c2cnc3cnccn23)cc2c1C(c1cc(F)ccc1Cl)NC2=O)c1cc(F)cc(C(F)(F)F)c1` (stereo not shown) [Compound I-940]: the IC50 was at most 100 nM.
Still for that read-out and setting: to `CC(C)(O)c1ncc(-c2cc(NC(=O)c3cc(F)cc(C(F)(F)F)c3)c3c(c2)C(=O)NC3c2cc(F)ccc2Cl)cn1` (stereo not shown) [Compound I-941] belongs 100 to 500 nM.
Still for that read-out and setting: the same measure for `O=C(Nc1cc(-c2cnn(C3CC3)c2)cc2c1C(c1cc(F)ccc1Cl)NC2=O)c1cc(F)cc(C(F)(F)F)c1` (stereo not shown) [Compound I-942]: at most 100 nM; for `CC(C)(C)OC(=O)N1CC(n2cc(-c3cc(NC(=O)c4cc(F)cc(C(F)(F)F)c4)c4c(c3)C(=O)NC4c3cc(F)ccc3Cl)cn2)C1` (stereo not shown) [Compound I-944]: at most 100 nM.
Same read-out and setting: to `O=C(Nc1cc(-c2cn3ccnc3cn2)cc2c1C(c1cc(F)ccc1Cl)NC2=O)c1cc(F)cc(C(F)(F)F)c1` (stereo not shown) [Compound I-946] belongs at most 100 nM; to `Cn1ccc(-c2cc(NC(=O)c3cc(F)cc(C(F)(F)F)c3)c3c(c2)C(=O)NC3c2cc(F)ccc2Cl)n1` (stereo not shown) [Compound I-947], at most 100 nM.
`O=C(Nc1cc(-c2cnc3ccccc3n2)cc2c1C(c1cc(F)ccc1Cl)NC2=O)c1cc(F)cc(C(F)(F)F)c1` (stereo not shown) [Compound I-948] showed a 50% inhibitory concentration (IC50) of at most 100 nM.
As for `O=C(Nc1cc(-c2cc3cnccc3[nH]2)cc2c1C(c1cc(F)ccc1Cl)NC2=O)c1cc(F)cc(C(F)(F)F)c1` (stereo not shown) [Compound I-949], the IC50 is at most 100 nM.
Still for that read-out and setting: to `O=C1NC(c2cc(F)ccc2Cl)c2c(Nc3nccc4c(Cl)cc(F)cc34)cc(Br)cc21` (stereo not shown) [Compound I-959] belongs 100 to 500 nM; to `O=C(Nc1cc(-n2cccn2)cc2c1C(c1cc(F)ccc1Cl)NC2=O)c1cc(F)cc(C(F)(F)F)c1` (stereo not shown) [Compound I-960], at most 100 nM.

For orientation: IC50 means the point on the concentration scale where inhibition reaches its midpoint.
